In this assay the test system is BDF1 mice, Adenocarcinoma 755 s.c., tumor weight T/C. The assay is described as follows: NCI In Vivo Anticancer Drug Screen. Data for tumor model Adenocarcinoma 755 (subcutaneous) in B6D2F1 (BDF1) mice. The settings on record: endpoint: mean tumor weight, higher = larger tumour. An outline of the steps: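 In vivo antitumor screen on a transplantable tumor line. Result equals the measure in compound-treated animals divided by the same measure in vehicle controls.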

The mark [1] stands for this setting: dose: 25.0 mg/kg/injection, schedule: Q01DX011 (ip), vehicle: carboxymethylcellulose (CMC).
Setting [2] is: dose: 170.0 mg/kg/injection, schedule: Q01DX011 (sc), vehicle: steriod suspending solution.
The mark [3] stands for this setting: dose: 340.0 mg/kg/injection, schedule: Q01DX011 (sc), vehicle: steriod suspending solution.

Here are results for five compounds from PubChem BioAssay AID180 (DTP/NCI, 2004).

Several values for one entry are separate records, joined by “and”; a condition that tells them apart may be missing. Equal entries are not always repeated.

One may read the T/C as the ratio of treated to control.

For the compound `CCCCn1cnc2c(=S)nc[nH]c21`, the T/C is, setting by setting: (dose: 2.5 mg/kg/injection, schedule: Q01DX011 (ip), vehicle: carboxymethylcellulose (CMC)) 62 % of control; (dose: 5.0 mg/kg/injection, schedule: Q01DX011 (ip), vehicle: carboxymethylcellulose (CMC)) 25 % of control; (dose: 5.0 mg/kg/injection, schedule: Q01DX011 (ip), vehicle: olive oil, sesame oil, peanut oil) 41 % of control; (dose: 5.0 mg/kg/injection, schedule: Q#A X022 (ip), vehicle: carboxymethylcellulose (CMC)) 4 % of control; (dose: 8.0 mg/kg/injection, schedule: Q01DX011 (ip), vehicle: carboxymethylcellulose (CMC)) 32 % of control; (dose: 10.0 mg/kg/injection, schedule: Q01DX006 (iv), vehicle: carboxymethylcellulose (CMC)) 20 % of control. Further, the T/C runs as follows: (dose: 10.0 mg/kg/injection, schedule: Q01DX011 (im), vehicle: carboxymethylcellulose (CMC)) 5 % of control; (dose: 10.0 mg/kg/injection, schedule: Q01DX011 (ip), vehicle: carboxymethylcellulose (CMC)) 2 % of control; (dose: 10.0 mg/kg/injection, schedule: Q01DX011 (ip), vehicle: olive oil, sesame oil, peanut oil) 14 % of control; (dose: 10.0 mg/kg/injection, schedule: Q#A X022 (ip), vehicle: carboxymethylcellulose (CMC)) 1 % of control; (dose: 16.0 mg/kg/injection, schedule: Q01DX011 (ip), vehicle: carboxymethylcellulose (CMC)) 8 % of control; (dose: 20.0 mg/kg/injection, schedule: Q01DX006 (iv), vehicle: carboxymethylcellulose (CMC)) 6 % of control. Also, the T/C runs as follows: (dose: 20.0 mg/kg/injection, schedule: Q01DX011 (im), vehicle: carboxymethylcellulose (CMC)) 2 % of control; (dose: 20.0 mg/kg/injection, schedule: Q01DX011 (ip), vehicle: carboxymethylcellulose (CMC)) 1 % of control; (dose: 20.0 mg/kg/injection, schedule: Q#A X022 (ip), vehicle: carboxymethylcellulose (CMC)) 2 % of control; under setting [1], 6 % of control; (dose: 27.0 mg/kg/injection, schedule: Q01DX001 (ip), vehicle: carboxymethylcellulose (CMC)) 73 % of control; (dose: 32.0 mg/kg/injection, schedule: Q01DX011 (ip), vehicle: carboxymethylcellulose (CMC)) 3 % of control. Also, the T/C reads like this: (dose: 40.0 mg/kg/injection, schedule: Q01DX006 (iv), vehicle: carboxymethylcellulose (CMC)) 1 % of control; (dose: 40.0 mg/kg/injection, schedule: Q01DX011 (im), vehicle: carboxymethylcellulose (CMC)) 2 % of control; (dose: 40.0 mg/kg/injection, schedule: Q#A X022 (ip), vehicle: carboxymethylcellulose (CMC)) 1 % of control; (dose: 54.0 mg/kg/injection, schedule: Q01DX001 (ip), vehicle: carboxymethylcellulose (CMC)) 59 % of control; (dose: 64.0 mg/kg/injection, schedule: Q01DX011 (ip), vehicle: carboxymethylcellulose (CMC)) 3 % of control; (dose: 75.0 mg/kg/injection, schedule: Q01DX011 (ip), vehicle: carboxymethylcellulose (CMC)) 4 % of control. Further, the T/C runs as follows: (dose: 107.0 mg/kg/injection, schedule: Q01DX001 (ip), vehicle: carboxymethylcellulose (CMC)) 8 % of control; (dose: 214.0 mg/kg/injection, schedule: Q01DX001 (ip), vehicle: carboxymethylcellulose (CMC)) 5 % of control.

On to `S=c1nc[nH]c2c1ncn2C1CCCO1` (configuration not stated), for which the T/C (dose: 0.5 mg/kg/injection, schedule: Q01DX011 (ip), vehicle: carboxymethylcellulose (CMC)) is 26 % of control; the T/C (dose: 1.0 mg/kg/injection, schedule: Q01DX011 (ip), vehicle: carboxymethylcellulose (CMC)) was 75 % of control; the T/C (dose: 1.5 mg/kg/injection, schedule: Q01DX011 (ip), vehicle: carboxymethylcellulose (CMC)) was 47 % of control; the T/C (dose: 6.0 mg/kg/injection, schedule: Q01DX011 (ip), vehicle: carboxymethylcellulose (CMC)) is 11 % of control; the T/C (dose: 12.0 mg/kg/injection, schedule: Q01DX011 (ip), vehicle: carboxymethylcellulose (CMC)) was 6 % of control; the T/C under setting [1] is 4 % of control. In addition, the T/C is 6 % of control (dose: 50.0 mg/kg/injection, schedule: Q01DX011 (ip), vehicle: carboxymethylcellulose (CMC)) and 6 % of control (dose: 100.0 mg/kg/injection, schedule: Q01DX011 (ip), vehicle: carboxymethylcellulose (CMC)).

`CSc1nc2c(=O)[nH]c(N)nc2n1C1OC(CO)C(O)C1O` (configuration not stated): the T/C was 88 % of control (dose: 30.0 mg/kg/injection, schedule: Q01DX011 (ip), vehicle: carboxymethylcellulose (CMC)); 98 % of control (dose: 60.0 mg/kg/injection, schedule: Q01DX011 (ip), vehicle: carboxymethylcellulose (CMC)); 91 % of control (dose: 120.0 mg/kg/injection, schedule: Q01DX011 (ip), vehicle: carboxymethylcellulose (CMC)); 47 % of control (dose: 240.0 mg/kg/injection, schedule: Q01DX011 (ip), vehicle: carboxymethylcellulose (CMC)).

`CC1C[C@@H]2[C@H]([C@@H](O)C[C@@]3(C)[C@H]2CC[C@]3(O)C(=O)CF)[C@@]2(C)CCC(=O)C=C12` (some centres not stated): the T/C reads like this: (dose: 1.2 mg/kg/injection, schedule: Q01DX011 (sc), vehicle: steriod suspending solution) 108 % of control; (dose: 2.5 mg/kg/injection, schedule: Q01DX011 (sc), vehicle: steriod suspending solution) 92 % of control; (dose: 8.0 mg/kg/injection, schedule: Q01DX011 (sc), vehicle: steriod suspending solution) 82 % of control; (dose: 10.0 mg/kg/injection, schedule: Q01DX011 (sc), vehicle: steriod suspending solution) 35 % of control; (dose: 16.0 mg/kg/injection, schedule: Q01DX011 (sc), vehicle: steriod suspending solution) 75 % of control; (dose: 20.0 mg/kg/injection, schedule: Q01DX011 (sc), vehicle: steriod suspending solution) 30 % of control. Besides, the T/C (dose: 32.0 mg/kg/injection, schedule: Q01DX011 (sc), vehicle: steriod suspending solution) was 55 % of control; the T/C (dose: 40.0 mg/kg/injection, schedule: Q01DX011 (sc), vehicle: steriod suspending solution) is 13 % of control; the T/C under setting [2] was 5 % of control and 10 % of control; the T/C under setting [3] is 9 % of control and 13 % of control.

With `CC(=O)[C@H]1[C@H](C)C[C@H]2[C@@H]3CCC4=CC(=O)CC[C@]4(C)[C@@]3(F)[C@@H](O)C[C@@]21C`, the T/C runs as follows: (dose: 5.31 mg/kg/injection, schedule: Q01DX011 (sc), vehicle: steriod suspending solution) 108 % of control; (dose: 6.0 mg/kg/injection, schedule: Q01DX011 (sc), vehicle: steriod suspending solution) 62 % of control; (dose: 10.62 mg/kg/injection, schedule: Q01DX011 (sc), vehicle: steriod suspending solution) 85 % of control; (dose: 12.0 mg/kg/injection, schedule: Q01DX011 (sc), vehicle: steriod suspending solution) 27 % of control; (dose: 21.25 mg/kg/injection, schedule: Q01DX011 (sc), vehicle: steriod suspending solution) 86 % of control; (dose: 25.0 mg/kg/injection, schedule: Q01DX011 (sc), vehicle: steriod suspending solution) 23 % of control. In addition, the T/C runs as follows: (dose: 42.5 mg/kg/injection, schedule: Q01DX011 (sc), vehicle: steriod suspending solution) 39 % of control and 48 % of control; (dose: 50.0 mg/kg/injection, schedule: Q01DX011 (sc), vehicle: steriod suspending solution) 16 % of control; (dose: 85.0 mg/kg/injection, schedule: Q01DX011 (sc), vehicle: steriod suspending solution) 17 % of control; (dose: 100.0 mg/kg/injection, schedule: Q01DX011 (sc), vehicle: steriod suspending solution) 12 % of control; under setting [2], 18 % of control; under setting [3], 18 % of control and 23 % of control. For the same compound, the T/C (dose: 680.0 mg/kg/injection, schedule: Q01DX011 (sc), vehicle: steriod suspending solution) was 8 % of control and 26 % of control; the T/C (dose: 1360.0 mg/kg/injection, schedule: Q01DX011 (sc), vehicle: steriod suspending solution) is 4 % of control.
